Experimental data reported in US11053204B2, “Pyrimidinyloxy benzene derivatives as herbicides” (FMC Corporation, priority 2015, dated 2021).

Key:
Format in all cases: in vivo
[1] = test system: galium (catchweed bedstraw, Galium aparine); experiment: Test A postemergence, visual injury rating; conditions: 0 is no effect, 100 is complete control; for Galium plant response rating: 0 to 100 scale, approximately 10 days
Procedure, shortened: (§1)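 Greenhouse pot test, loam/sand soil. Formulation: non-phytotoxic solvent mix plus surfactant. Pre: directed spray onto soil after sowing. Post: plants at 1–2 leaf, 2–10 cm. Rated visually vs untreated controls at ~10 d, 0 (no effect) to 100 (complete control).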

[2] = test system: barnyardgrass (Echinochloa crus-galli); experiment: Test A postemergence, visual injury rating; conditions: 0 is no effect, 100 is complete control; for Barnyardgrass plant response rating: 0 to 100 scale, approximately 10 days
Procedure, shortened: as §1

[3] = test system: pigweed (Amaranthus retroflexus); experiment: Test A postemergence, visual injury rating; conditions: 0 is no effect, 100 is complete control; for Pigweed plant response rating: 0 to 100 scale, approximately 10 days
Procedure, shortened: as §1

corn (Zea mays) = experiment: Test A postemergence, visual injury rating; conditions: 0 is no effect, 100 is complete control; for Corn plant response rating: 0 to 100 scale, approximately 10 days
Procedure, shortened: as §1

[4] = test system: wheat (Triticum aestivum); experiment: Test A postemergence, visual injury rating; conditions: 0 is no effect, 100 is complete control; for Wheat plant response rating: 0 to 100 scale, approximately 10 days
Procedure, shortened: as §1

[5] = test system: ragweed (common ragweed, Ambrosia elatior); experiment: Test A postemergence, visual injury rating; conditions: 0 is no effect, 100 is complete control; for Ragweed plant response rating: 0 to 100 scale, approximately 10 days
Procedure, shortened: as §1

[6] = test system: giant foxtail (Setaria faberii); experiment: Test A postemergence, visual injury rating; conditions: 0 is no effect, 100 is complete control; for Foxtail, Giant plant response rating: 0 to 100 scale, approximately 10 days
Procedure, shortened: as §1

[7] = test system: Italian ryegrass (Lolium multiflorum); experiment: Test A postemergence, visual injury rating; conditions: 0 is no effect, 100 is complete control; for Ryegrass, Italian plant response rating: 0 to 100 scale, approximately 10 days
Procedure, shortened: as §1

kochia (Kochia scoparia) [8] = experiment: Test A postemergence, visual injury rating; conditions: 0 is no effect, 100 is complete control; for Kochia plant response rating: 0 to 100 scale, approximately 10 days
Procedure, shortened: as §1

[9] = test system: blackgrass (Alopecurus myosuroides); experiment: Test A postemergence, visual injury rating; conditions: 0 is no effect, 100 is complete control; for Blackgrass plant response rating: 0 to 100 scale, approximately 10 days
Procedure, shortened: as §1

[10] = test system: barnyardgrass (Echinochloa crus-galli); experiment: Test A preemergence, visual injury rating
Procedure, shortened: as §1

[11] = test system: pigweed (Amaranthus retroflexus); experiment: Test A preemergence, visual injury rating
Procedure, shortened: as §1

[12] = test system: ragweed (common ragweed, Ambrosia elatior); experiment: Test A preemergence, visual injury rating
Procedure, shortened: as §1

[13] = test system: giant foxtail (Setaria faberii); experiment: Test A preemergence, visual injury rating
Procedure, shortened: as §1

[14] = test system: Italian ryegrass (Lolium multiflorum); experiment: Test A preemergence, visual injury rating
Procedure, shortened: as §1

kochia (Kochia scoparia) [15] = experiment: Test A preemergence, visual injury rating
Procedure, shortened: as §1

rice (Oryza sativa) = experiment: Test B flooded paddy test, plant response rating; conditions: 250 g ai/ha; Flood; scale of 0 to 100 where 0 is no effect and 100 is complete control; 13 to 15 days
Procedure, shortened: (§2)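 Visual injury ratings against untreated controls, taken 13 to 15 days after compound was added to paddy water standing 3 cm above the soil.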

[16] = test system: sedge, umbrella (small-flower umbrella sedge, Cyperus difformis); experiment: Test B flooded paddy test, plant response rating; conditions: 250 g ai/ha; Flood; scale of 0 to 100 where 0 is no effect and 100 is complete control; 13 to 15 days
Procedure, shortened: as §2

[17] = test system: ducksalad (Heteranthera limosa); experiment: Test B flooded paddy test, plant response rating; conditions: 250 g ai/ha; Flood; scale of 0 to 100 where 0 is no effect and 100 is complete control; 13 to 15 days
Procedure, shortened: as §2

[18] = test system: barnyardgrass (Echinochloa crus-galli); experiment: Test B flooded paddy test, plant response rating; conditions: 250 g ai/ha; Flood; scale of 0 to 100 where 0 is no effect and 100 is complete control; 13 to 15 days
Procedure, shortened: as §2

[19] = 31 g ai/ha, 0 to 100 scale, 0 no effect, 100 complete control
[20] = 125 g ai/ha, 0 to 100 scale (0 no effect, 100 complete control)

## FC(F)(F)CCCCCc1c(Br)cccc1Oc1ncc(Cl)cn1 [Compound 121]
[1]; 31 g ai/ha
  Galium plant response rating: 70
[1]; 125 g ai/ha
  Galium plant response rating: 80
[2]; 31 g ai/ha
  Barnyardgrass plant response rating: 20
[2]; 125 g ai/ha
  Barnyardgrass plant response rating: 40
[3]; 31 g ai/ha
  Pigweed plant response rating: 80
[3]; 125 g ai/ha
  Pigweed plant response rating: 100
Corn (Zea mays); 31 g ai/ha
  Corn plant response rating: 10
Corn (Zea mays); 125 g ai/ha
  Corn plant response rating: 10
[4]; 31 g ai/ha
  Wheat plant response rating: 10
[4]; 125 g ai/ha
  Wheat plant response rating: 10
[5]; 31 g ai/ha
  Ragweed plant response rating: 20
[5]; 125 g ai/ha
  Ragweed plant response rating: 50
[6]; 31 g ai/ha
  Foxtail, Giant plant response rating: 10
[6]; 125 g ai/ha
  Foxtail, Giant plant response rating: 70
[7]; 31 g ai/ha
  Ryegrass, Italian plant response rating: 10
[7]; 125 g ai/ha
  Ryegrass, Italian plant response rating: 20
Kochia (Kochia scoparia) [8]; 31 g ai/ha
  Kochia plant response rating: 20
Kochia (Kochia scoparia) [8]; 125 g ai/ha
  Kochia plant response rating: 80
[9]; 31 g ai/ha
  Blackgrass plant response rating: 20
[9]; 125 g ai/ha
  Blackgrass plant response rating: 30
[10]; [19]
  Plant response rating, Barnyardgrass: 0
[10]; [20]
  Plant response rating, Barnyardgrass: 30
[11]; [19]
  Plant response rating, Pigweed: 0
[11]; [20]
  Plant response rating, Pigweed: 0
[12]; [19]
  Plant response rating, Ragweed: 0
[12]; [20]
  Plant response rating, Ragweed: 0
[13]; [19]
  Plant response rating, Foxtail, Giant: 30
[13]; [20]
  Plant response rating, Foxtail, Giant: 100
[14]; [19]
  Plant response rating, Ryegrass, Italian: 10
[14]; [20]
  Plant response rating, Ryegrass, Italian: 0
Kochia (Kochia scoparia) [15]; [19]
  Plant response rating, Kochia: 20
Kochia (Kochia scoparia) [15]; [20]
  Plant response rating, Kochia: 0
Rice (Oryza sativa)
  Plant response rating, Rice: 35
[16]
  Plant response rating, Sedge, Umbrella: 70
[17]
  Plant response rating, Ducksalad: 0
[18]
  Plant response rating, Barnyardgrass: 50

## CC(C)(C)OC(=O)c1c(F)cccc1Oc1ncc(Cl)cn1 [Compound 43]
[1]; 31 g ai/ha
  Galium plant response rating: 20
[1]; 125 g ai/ha
  Galium plant response rating (0 to 100 scale): 40
[2]; 31 g ai/ha
  Barnyardgrass plant response rating: 0
[2]; 125 g ai/ha
  Barnyardgrass plant response rating (0 to 100 scale): 10
[3]; 31 g ai/ha
  Pigweed plant response rating: 10
[3]; 125 g ai/ha
  Pigweed plant response rating (0 to 100 scale): 40
Corn (Zea mays); 31 g ai/ha
  Corn plant response rating: 0
Corn (Zea mays); 125 g ai/ha
  Corn plant response rating (0 to 100 scale): 0
[4]; 31 g ai/ha
  Wheat plant response rating: 0
[4]; 125 g ai/ha
  Wheat plant response rating (0 to 100 scale): 0
[5]; 31 g ai/ha
  Ragweed plant response rating: 0
[5]; 125 g ai/ha
  Ragweed plant response rating (0 to 100 scale): 0
[6]; 31 g ai/ha
  Foxtail, Giant plant response rating: 0
[6]; 125 g ai/ha
  Foxtail, Giant plant response rating (0 to 100 scale): 0
[7]; 31 g ai/ha
  Ryegrass, Italian plant response rating: 0
[7]; 125 g ai/ha
  Ryegrass, Italian plant response rating (0 to 100 scale): 0
Kochia (Kochia scoparia) [8]; 31 g ai/ha
  Kochia plant response rating: 0
Kochia (Kochia scoparia) [8]; 125 g ai/ha
  Kochia plant response rating (0 to 100 scale): 10
[9]; 31 g ai/ha
  Blackgrass plant response rating: 0
[9]; 125 g ai/ha
  Blackgrass plant response rating (0 to 100 scale): 0
[10]; [19]
  Plant response rating, Barnyardgrass: 0
[10]; [20]
  Barnyardgrass plant response rating: 40
[11]; [19]
  Plant response rating, Pigweed: 30
[11]; [20]
  Pigweed plant response rating: 90
[12]; [19]
  Plant response rating, Ragweed: 0
[12]; [20]
  Ragweed plant response rating: 0
[13]; [19]
  Plant response rating, Foxtail, Giant: 0
[13]; [20]
  Foxtail, Giant plant response rating: 60
[14]; [19]
  Plant response rating, Ryegrass, Italian: 0
[14]; [20]
  Ryegrass, Italian plant response rating: 0
Kochia (Kochia scoparia) [15]; [19]
  Plant response rating, Kochia: 100
Kochia (Kochia scoparia) [15]; [20]
  Kochia plant response rating: 100
Rice (Oryza sativa)
  Plant response rating, Rice: 0
[16]
  Plant response rating, Sedge, Umbrella: 0
[17]
  Plant response rating, Ducksalad: 0
[18]
  Plant response rating, Barnyardgrass: 0

## O=C(OCC(F)(F)C(F)(F)F)c1c(F)cccc1Oc1ncc(Cl)cn1 [Compound 5]
[1]; 31 g ai/ha
  Galium plant response rating: 0
[1]; 125 g ai/ha
  Galium plant response rating (0 to 100 scale): 0
[2]; 31 g ai/ha
  Barnyardgrass plant response rating: 0
[2]; 125 g ai/ha
  Barnyardgrass plant response rating (0 to 100 scale): 0
[3]; 31 g ai/ha
  Pigweed plant response rating: 0
[3]; 125 g ai/ha
  Pigweed plant response rating (0 to 100 scale): 0
Corn (Zea mays); 31 g ai/ha
  Corn plant response rating: 0
Corn (Zea mays); 125 g ai/ha
  Corn plant response rating (0 to 100 scale): 0
[4]; 31 g ai/ha
  Wheat plant response rating: 0
[4]; 125 g ai/ha
  Wheat plant response rating (0 to 100 scale): 0
[5]; 31 g ai/ha
  Ragweed plant response rating: 0
[5]; 125 g ai/ha
  Ragweed plant response rating (0 to 100 scale): 0
[6]; 31 g ai/ha
  Foxtail, Giant plant response rating: 0
[6]; 125 g ai/ha
  Foxtail, Giant plant response rating (0 to 100 scale): 0
[7]; 31 g ai/ha
  Ryegrass, Italian plant response rating: 0
[7]; 125 g ai/ha
  Ryegrass, Italian plant response rating (0 to 100 scale): 0
Kochia (Kochia scoparia) [8]; 31 g ai/ha
  Kochia plant response rating: 0
Kochia (Kochia scoparia) [8]; 125 g ai/ha
  Kochia plant response rating (0 to 100 scale): 0
[9]; 31 g ai/ha
  Blackgrass plant response rating: 0
[9]; 125 g ai/ha
  Blackgrass plant response rating (0 to 100 scale): 0
[10]; [19]
  Plant response rating, Barnyardgrass: 0
[10]; [20]
  Barnyardgrass plant response rating: 0
[11]; [19]
  Plant response rating, Pigweed: 0
[11]; [20]
  Pigweed plant response rating: 0
[12]; [19]
  Plant response rating, Ragweed: 0
[12]; [20]
  Ragweed plant response rating: 0
[13]; [19]
  Plant response rating, Foxtail, Giant: 0
[13]; [20]
  Foxtail, Giant plant response rating: 0
[14]; [19]
  Plant response rating, Ryegrass, Italian: 0
[14]; [20]
  Ryegrass, Italian plant response rating: 0
Kochia (Kochia scoparia) [15]; [19]
  Plant response rating, Kochia: 0
Kochia (Kochia scoparia) [15]; [20]
  Kochia plant response rating: 0
Rice (Oryza sativa)
  Plant response rating, Rice: 0
[16]
  Plant response rating, Sedge, Umbrella: 0
[17]
  Plant response rating, Ducksalad: 0
[18]
  Plant response rating, Barnyardgrass: 0
